# Results taken from patent publication US5552267A, “Solution for prolonged organ preservation” (priority 1994, dated 1996).
# Entries after “also recorded” stand apart in the source; their conditions may differ.
# Columns and labels:
# [1] = system: heart; assay: heterotopic rat heart transplant model, First Series Experiment One (heart survival rate, heart transplant index); type: in vivo, rat (male Sprague-Dawley); settings: in place of db cAMP, 24 hr
# [2] = system: heart; assay: heterotopic rat cardiac transplant, cAMP series, graft survival/score; type: in vivo, rat (male Sprague-Dawley); settings: 12 h in LR
# Text: Preservation solutions included lactated Ringer's (LR) solution Baxter, Edison, N.J.), or LR supplemented with rolipram ZK 62 711, Schering AG, Berlin, Germany), indolidan LY195115, Lilly Research Laboratories, Indianapolis, Ind.), sodium butyrate, 8-bromoadenosine, 8-bromoadenosine 3',5'monophosphate (8-Br-cAMP; Sigma Chemical Co., St. Louis, Mo.), the Rp -isomer of adenosine 3',5'monophosphorothioate (Rp -cAMPS; Biolog, La Jolla, Calif.), the Sp isomer of adenosine 3',5'monophosphorothioate (Sp -cAMPS; Biolog), and N^6,O^2' -dibutyryl adenosine 3',5'monophosphate sodium (db-cAMP; Aldrich, Milwaukee, Wis.). Components were combined within 4 hrs of donor cardiectomy, and preservation solutions were kept at 4° C. University of Wisconsin solution (UW)(2-4 was purchased from Dupont (Wilmington, Del.).
# Donor Cardiectomy. Male Sprague-Dawley rats (350-450 grams, Camm Research, Wayne, N.J.) were anesthetized, heparinized (1000 units of heparin given intravenously), and the donor heart removed in the following manner; a midline incision was performed, followed by rapid cardioplegic arrest with 5 ml of cold (4° C.), high potassium solution (NACl, 0.9%, and KCl, 40 mEq/L). The heart was maintained at 4° C. throughout the harvest procedure by the application of a cold saline soaked gauze over its surface. […] The aortic root was flushed with ≈15 ml of the cold preservation solution until the coronary arteries became visibly clear, and the heart remained in the cold storage solution for the indicated duration until the time of transplantation.
# Heterotopic Transplant. The same breed/size of rat was used, and similarly anesthetized, but not given heparin. A midline abdominal incision was made, and the infrarenal aorta and vena cava were occluded with a side-biting vascular clamp and longitudinal incisions were made in each vessel. The donor heart was removed from the preservation solution and kept moist with saline-soaked gauze. […] Blood flow was restored to the graft (by removal of the clamp) exactly one hour after removal from the cold preservation solution. […] Ten minutes after removal of the cross-clamp, an electrocardiogram was taken (Grass Polygraph, Quincy, Mass.) and the heart was judged by the same blinded investigators throughout based on the presence/absence of regular contractions and a transplant score (0-5, worst-best, respectively) employing the following criteria: contraction (poor=0, average=1, vigorous=2), tissue turgor (hard=0, average=1, soft=2), and color (dusky=0, pink=1). […] The heterotopic cardiac transplant experiments performed in these studies were done by a single surgeon after establishment of this model and acquisition of surgical expertise, with control and experimental groups interspersed throughout the study period to prevent a time-dependent bias pertaining to surgical skills.
# Statistics. Graft survival data and transplant scores were analyzed using the Kruskal-Wallis non-parametric analysis of variance (38). Comparisons of individual treatments were performed using the procedure described by Dunn (39). In addition, the effect of db-cAMP on the time-course of graft failure was quantified by multivariate logistic regression. Graft myeloperoxidase data, microsphere data, and cAMP/adenylate cyclase/phosphodiesterase data from experiments with cultured vascular smooth muscle cells were analyzed by t-tests when 2 treatments were performed or by analysis of variance when 3 or more treatments were performed. In the latter case, post-hoc comparison of treatment groups were tested using Tukey's procedure. Values are expressed as means ±SEM, with a p <0.05 considered statistically significant.
# [3] = system: HUVECs / platelets; assay: NO by inhibition of thrombin-induced platelet aggregation and serotonin release by ECs; type: cell-based, human; settings: normoxic ECs (hemoglobin); hypoxia 16 h + reoxygenated ECs (SOD, BHT)
# Protocol: Radiolabelled serotonin (^14 C-5-hydroxytryptamine, Amersham, Arlington Heights, Ill.) was incorporated into the platelets by adding 0.5 μCi during the blood collection process. Inhibition of cyclooxygenase was confirmed by the absence of aggregation to 1 mM sodium arachidonate.
# HUVECs from fresh human umbilical veins were isolated and grown according to previously published methods^12, and used between the 3rd and 4th passages. HUVEC cyclooxygenase was inhibited with acetylsalicylic acid (1 mmol/L in M199 medium, incubated for 30 minutes at 37° C., and then washed twice with M199 to remove residual acetylsalicylic acid) immediately prior to collagenase digestion. […] An hypoxic environment was administered by placing cells in a specially designed airtight chamber (Coy Laboratory Products, Ann Arbor, Mich.) with a normobaric environment comprised of 90% N2, 5% H2, 5% CO2, and 0% O2. pO2 s of 15 Torr in the culture medium were achieved by the use of a palladium catalyst in the chamber to reduce any residual O2. All manipulations, including centrifugation and washing of cells (up to the final aggregometry, or reoxygenation phases as described), were performed within the hypoxia chamber. Reoxygenation was accomplished by removing an aliquot of washed and counted HUVECs in suspension to room air for the indicated duration.
# Platelets were challenged with graded doses of α-thrombin (Sigma) to determine the concentration that caused maximal platelet aggregation (0.3 u/mL in all cases), and this dose was used for all further studies. […] Interference with light absorption was measured for 3 minutes to obtain platelet aggregation curves, after which the cuvette contents were placed on ice, centrifuged at 5,000 rpm for 5 minutes at 4° C., and 200 μL of supernatant was recovered and counted in a liquid scintillation counter to quantify ^14 C-serotonin release. […] Results are expressed as both aggregometry curves and as % maximal serotonin release as defined by thrombin challenge in the absence of ECs.
# [4] = system: cAMP-dependent protein kinase; settings: cited from earlier work
# [5] = molecular target: cGMP-dependent protein kinase; settings: cited from earlier work
# [6] = system: lung; assay: orthotopic rat left lung transplantation, cGMP series (hemodynamics, oxygenation, recipient survival); type: in vivo, rat (male Lewis); settings: 6 h in EC
# Protocol: Orthotopic rat left lung transplantation was accomplished using inbred male Lewis rats (250-300 gms), using a modification of a previously described technique^29. The donor rat was anesthetized and heparinized (500 U intravenously), and endotracheal intubation was performed by inserting a 16 gauge angiocatheter into the trachea using blunt cervical dissection, after which the rat was ventilated with room air at a constant rate (100 breaths/minute) and tidal volume (2.5 ml), using a Harvard rodent ventilator. […] The pulmonary artery (PA) and pulmonary vein (PV) were divided, the bronchus ligated with the lung partially inflated and then divided, and the lung removed. The vascular stumps were each pulled through a small plastic cylinder, and a lip of vessel was turned back around the edge and secured in place with a suture to form a "cuff." A small plastic cylinder was inserted into the bronchial stump and secured, and the lung was then wrapped in gauze and submerged in cold preservation solution for the desired interval.
# The recipient rat (gender/size/strain-matched) was similarly anesthetized and intubated (ventilated with 100% oxygen), but not heparinized. A left thoracotomy was performed, the hilum was dissected, and the left bronchus, PA, and PV were isolated, cross-clamped, divided and the native lung was removed from the field. The PA and PV stumps were rinsed with heparinized saline to remove any clot. The donor lung was brought onto the surgical field, and the cylinder (bronchus) and cuffs (PA and PV) were connected rapidly to their respective structures with a simple staying suture. This cuff technique permitted rapid approximation of donor and recipient tissues with no contact of a foreign substance with the luminal vascular surface. The hilar cross-clamp was released, re-establishing blood flow, and the bronchus tie was removed, enabling gas exchange. A snare was then passed around the right PA, and a Millar catheter (2F; Millar Instruments,Houston, Tex.) was introduced through a small hole (surrounded by a pursestring) into the main PA; similarly, a Millar catheter was introduced into the left atrium (LA). A flow probe (Transonics, Ithaca, N.Y.) was then placed around the main PA. Arterial blood gas sampling performed via the left femoral artery.
# Online hemodynamic monitoring was accomplished using MacLab and a Macintosh IIci computer. The hemodynamic parameters that were measured included PA pressure (mm Hg), blood flow (ml/min), LA pressure (mm Hg), as well as arterial oxygen tension (mm Hg) during inspiration of 100% oxygen; pO2 was analyzed with a model ABL-2 dissolved gas analyzer (Radiometer, Copenhagen, Denmark). Pulmonary vascular resistances (PVRs) were calculated as [mean PA pressure-LA pressure]/PA flow. The native lung supported the recipient during the period of warm ischemia (the period during which the donor lung was removed from cold preservation until the time of reperfusion, <10 min. in all instances), but immediately following rapid hemodynamic instrumentation and acquisition of baseline measurements, the native (right) PA was then ligated, and serial measurements (representative solely of the transplanted lung) were taken every five minutes for 30 minutes. Because the native lung was effectively removed from the circulation by ligation of the right PA, these measurements represent function of the transplanted lung. Recipient death was identified by the cessation of cardiac mechanical activity observed through the thoracotomy.
# Preservation solutions were freshly made and coded by a technician not otherwise involved in the experiments, according to a general plan which included both control and experimental groups. […]
# [7] = system: myocardial infarct / neutrophils; settings: canine ischemia/reperfusion; cited from earlier work
# [8] = system: nitric oxide production in heart; assay: direct measurement of coronary vascular and endocardial NO with porphyrinic microsensor; parameters: species or system rat; settings: transplanted hearts
# Protocol: Direct measurement of coronary vascular and endocardial nitric oxide synthesis were made with a porphyrinic microsensor^13 using differential pulse voltammetry or amperometry. Rat hearts were explanted and preserved as described above, and studied fresh (no preservation/transplantation) or after hypothermic preservation in lactated Ringer's (LR) solution, heterotopic transplantation, and 10 minutes of reperfusion. The coronary vasculature was flushed free of blood with LR followed by 4 ml of LR supplemented with L-Arg (2 mM) and bradykinin ([…], Sigma), which was recycled (1 ml/min) through the coronary vasculature by flushing down the cross-clamped aortic root. Aliquots of perfusate were immediately transferred to an anaerobic environment for measurements and compared to an aqueous nitric oxide reference. Differential pulse voltammograms were obtained using a sensor (working electrode), saturated calomel electrode reference, and platinum wire-auxiliary electrode, with a pulse amplitude of 40 mV. Endocardial NO was measured by implanting the sensor in the septal endocardium of a freshly explanted or preserved/transplanted heart, and after the baseline stabilization, […] bradykinin was applied and NO release continuously monitored by amperometry at constant potential of 0.63 V.
# [9] = system: nitric oxide in lung tissue; assay: ex vivo pulmonary NO with porphyrinic microsensor; parameters: species or system rat
# Protocol: Direct measurement of pulmonary NO production was made using a porphyrinic microsensor^30 and differential pulse voltammetry. Pieces of rat lung of equal weight (40±4 mg) were harvested following 6 hrs of hypothermic preservation in LR alone, or 6 hrs of preservation followed by orthotopic transplantation and 30 minutes of reperfusion as described above. These pieces were placed in a vial containing 2 mL of LR and equilibrated to 37° C. under ambient conditions. Differential pulse voltammograms (current [proportional to NO concentration] versus potential) with pulse amplitude of 40 mV were obtained with a sensor placed on the tissue surface. A saturated calomel reference electrode (SCE) and platinum wire (auxiliary electrode) were immersed in the LR solution. The sensor is a working electrode at which oxidation of NO occurs, resulting in an electric current (which flows between working and auxiliary electrodes). The reference electrode is used to monitor the potential of the working electrode. NO concentrations measured ex vivo have been normalized, and are reported as per 40 mg of tissue. An aqueous NO solution prepared as previously described^31 was used to calibrate the sensor.
# [10] = system: nitric oxide at lung surface; assay: in vivo pulmonary NO with porphyrinic microsensor; parameters: species or system rat
# Protocol: Measurements of nitric oxide concentrations in vivo were performed with a two electrode system using a porphyrinic sensor as a working electrode and a platinum wire as an auxiliary/reference electrode. The porphyrinic sensor with a flexible base was lowered onto the exposed surface of the lung using a micromanipulator. A small piezoelectric signal (mechanically generated current) was used to indicate that the sensor had made contact with the tissue surface. NO measurements were begun once the flexible sensor assumed an L-shaped configuration on the tissue surface and the platinum wire was connected to adjacent tissue. Continous amperometric (current-time) measurements were obtained at a constant potential of 0.68 V, during the period of warm ischemia (after the lung was sewn in place but not yet reperfused) and continously as the vascular cross-clamp was released and reperfusion initiated. Topical application of the calcium ionophore (A23187, 9.5 μM; Sigma) and superoxide dismutase (100 U/ml; Sigma) was applied as monitoring was continued.
# [11] = lung preserved 6 h in LR, no reimplantation
molecule,measurement,setting,value
Nc1ncnc2c1nc(Br)n2[C@@H]1O[C@H](CO)[C@@H](O)[C@H]1O [8-bromoadenosine],beneficial effect on cardiac preservation,[1],no such beneficial effect
same,effect on cardiac preservation,[2],ineffective
"Cc1cc(C(C)(C)C)c(O)c(C(C)(C)C)c1 [BHT, butylated hydroxytoluene]",effect on NO / platelet inhibition by ECs,[3],restore NO levels
"Nc1ncnc2c1ncn2[C@@H]1O[C@@H]2CO[P@@](O)(=S)O[C@H]2[C@H]1O [Rp -cAMPS, Rp isomer of adenosine 3'5'monophosphorothioate]",effect on cardiac preservation,[2],prevented preservation enhancement induced by 8-bromo-cAMP; also recorded: abolished the salutory effect of 8-Br-cAMP on preservation
same,effect on cAMP-dependent protein kinase,[4],nonhydrolyzable competitive PKA antagonist
"Nc1nc2c(nc(Sc3ccc(Cl)cc3)n2[C@@H]2O[C@@H]3CO[P@@](O)(=S)O[C@H]3[C@H]2O)c(=O)[nH]1 [Rp-8-pCPT-cGMPS, R isomer of 8-(4-chlorophenylthio)guanosine-3'5'-cyclic monophosphorothioate]",Ki,"[5]; cGMP-dependent protein kinase, personal communication",0.5 µM
same,Ki,"[4]; cAMP-dependent protein kinase, personal communication",8.3 µM
same,effect on lung preservation,[6],block the beneficial effects of 8-Br-cGMP
"Nc1ncnc2c1ncn2[C@@H]1O[C@@H]2CO[P@](O)(=S)O[C@H]2[C@H]1O [Sp -cAMPS, Sp isomer of adenosine 3'5'monophosphorothioate]",effect on cGMP-dependent protein kinase,[5],antagonist of the cGMP-dependent protein kinase
same,effect on cardiac preservation,[2],enhanced preservation
same,effect on cAMP-dependent protein kinase,[4],PKA agonist
"CCCC(=O)[O-].[Na+] [butyrate, sodium butyrate]",beneficial effect on cardiac preservation,[1],no such beneficial effect
same,effect on cardiac preservation,[2],consistently failed
COc1ccc(C2CNC(=O)C2)cc1OC1CCCC1 (stereo not shown) [rolipram],myocardial infarct size,[7],does not limit myocardial infarct size
same,neutrophil superoxide production in vitro / no-reflow,[7],significantly reduces neutrophil production of superoxide in vitro
same,effect on cardiac preservation,[2],uniformly enhanced preservation
SOD: bovine erythrocyte superoxide dismutase,effect on NO levels,[8],levels augmented
same,effect on NO / platelet inhibition by ECs,[3],restore NO levels
same,fold increase in detectable NO with SOD,[9]; lung preserved 6 h in LR and reimplanted,~ 25 fold
same,NO concentration with SOD,[9]; [11],300 nM
same,increase in NO with SOD,[9]; [11],50%
same,increase in NO with SOD,[10]; normal lung,10%
same,local NO concentration with SOD,[10]; normal lung,720 ± 110 nM
same,NO level with SOD during reperfusion,"[10]; preserved 6 h in LR, transplanted, from ~25 nM",~ 40 nM
hemoglobin,effect on NO / platelet inhibition by ECs,[3],blocked
